6 molecules from paper PMC10308197 (Cell Insight, 2023) can be followed below.

For assay [1], the target named is T1, METTL9 (Homo sapiens, UniProt Q9H1A3). Briefly: Isothermal titration calorimetry. The format is binding. (ITC needs no label: the signal is the heat of the interaction.)
Target sequence in this assay (Q9H1A3 whole entry): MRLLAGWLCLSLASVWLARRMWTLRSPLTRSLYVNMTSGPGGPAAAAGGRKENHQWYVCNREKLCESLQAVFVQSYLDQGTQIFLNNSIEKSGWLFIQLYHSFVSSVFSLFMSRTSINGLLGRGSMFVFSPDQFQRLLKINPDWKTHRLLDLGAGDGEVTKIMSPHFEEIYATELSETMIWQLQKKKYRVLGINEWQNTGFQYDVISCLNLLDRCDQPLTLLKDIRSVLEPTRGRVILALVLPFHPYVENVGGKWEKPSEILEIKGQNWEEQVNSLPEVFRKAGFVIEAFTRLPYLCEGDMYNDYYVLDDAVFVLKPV
A further assay deals with METTL9 mutants. Briefly: ITC of mutant METTL9 titrated with SAH. The format is binding, human. Particulars: METTL9 T173A, T115A and N118A (range over the three mutants).
Assay [2] addresses T1, METTL9. Format: biochemical. Conditions: mono-methylated product monitored, N = 3.
Target sequence in this assay (Q9H1A3 19-318): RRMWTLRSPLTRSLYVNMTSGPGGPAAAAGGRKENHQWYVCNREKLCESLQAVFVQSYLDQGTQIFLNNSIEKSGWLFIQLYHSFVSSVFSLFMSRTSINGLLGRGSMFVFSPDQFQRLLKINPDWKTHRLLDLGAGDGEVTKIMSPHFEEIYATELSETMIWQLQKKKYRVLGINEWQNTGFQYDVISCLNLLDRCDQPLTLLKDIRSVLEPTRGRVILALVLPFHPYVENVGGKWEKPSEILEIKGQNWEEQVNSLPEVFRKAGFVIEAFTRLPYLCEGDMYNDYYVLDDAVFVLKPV
The next assay concerns the target METTL9 D213N (human, UniProt Q9H1A3 19-318, D213N). Briefly: ITC.
The next assay deals with METTL9 D213S (human, UniProt Q9H1A3 19-318, D213S). Description: ITC.
The next assay addresses METTL9 T115A (human, UniProt Q9H1A3 19-318, T115A). Description: ITC.
The target of the next assay is D213S or D213N. Briefly: ITC.
Another assay deals with T115A, V241G, and C297A. Description: ITC.

METTL9 T115A, sequence (Q9H1A3 19-318 T115A): as the sequence (Q9H1A3 19-318) above, with T97A counted along it
METTL9 D213N, sequence (Q9H1A3 19-318 D213N): as the sequence (Q9H1A3 19-318) above, with D195N counted along it
METTL9 D213S, sequence (Q9H1A3 19-318 D213S): as the sequence (Q9H1A3 19-318) above, with D195S counted along it

Broadly, the Kd is a measure of binding affinity in units of concentration. The low end stands for higher affinity, the high end for lower affinity. At METTL9 [1], `Nc1ncnc2c1ncn2[C@@H]1O[C@H](CSCC[C@H](N)C(=O)O)[C@@H](O)[C@H]1O` [SAH, S-adenosylhomocysteine] came in with a Kd of 3.1 µM. Further, the “decrease in SAH binding relative to wild type” value with METTL9 mutants is reported as 2–10 fold.

On to `[Cl-].[Cl-].[Zn+2]` [ZnCl2], for which the “effect on histidine methylation of SLC39A7_55-70 by METTL9” value on METTL9 [2] (0.5 mM ZnCl2 added) is “substantially inhibited”. Ac-HTHESWIHG-NH2 [SLC39A7_66-74] yielded a Kd on METTL9 [1] of 6.7 µM.

With `O=C(O)CN(CCN(CC(=O)O)CC(=O)O)CC(=O)O` [EDTA, ethylenediaminetetraacetic acid], the “effect on METTL9 enzymatic activity towards SLC39A7_55-70 in presence of zinc” value on METTL9 [2] (zinc ions removed by EDTA) was “completely restored”. `C[S+](CC[C@H](N)C(=O)[O-])C[C@H]1O[C@@H](n2cnc3c(N)ncnc32)[C@H](O)[C@@H]1O` (some centres unmarked) [SAM, S-adenosylmethionine] gave an equilibrium dissociation constant (Kd) on METTL9 [1] of 1.6 µM.

For HTHESIWHG [SLC39A7_(66-74) peptide], the binding result with METTL9 D213N, in the assay with METTL9 D213S and in the assay with METTL9 T115A was “binds” in each case. Besides, in the assay with D213S or D213N, the fold weakening of binding against wild-type METTL9 lay within 4 to 6 fold. Besides, in the assay with T115A, V241G, and C297A, the fold reduction of binding against wild-type METTL9 fell in the range of 6 to 10 fold.
